Measurements published in PubChem BioAssay AID2740 (NMMLSC, 2010).
Calls of active or inactive are those of the source.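 Rule for the calls: active = compounds whose fitted half-maximal concentration for changing the GFP signal is at or below a set limit; inactive = the rest.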

Test system: S. cerevisiae RPL19A-GFP strain, flow cytometry fluorescence, 3 h
Experiment: TOR pathway RPL19A-GFP modulators, concentration series – cell-based, S. cerevisiae, flow cytometry, MLPCN hits, dose response (AID 2740);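 for GFP fluorescence, lower = active: background is signal of the same compound in parental non-GFP s288c yeast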
Conditions: not given

SMILES	EC50
Cc1ccc(N/N=C(\C#N)C(N)=S)c(C)c1	5 µM
O=[N+]([O-])c1ccc(S(=O)(=O)c2cccc(C(F)(F)F)c2)nc1	11.8 µM
CSc1nnc2c3cc(F)ccc3n(C)c2n1	1.19 µM
CCOC(=O)c1cc(-c2ccc(/C=C3/C(=O)NC(=O)C(C#N)=C3C)o2)ccc1Cl	3.35 µM
N/C(Cc1ccc(Cl)cc1Cl)=N\OC(=O)c1cccs1	12.9 µM
O=[N+]([O-])c1ccc(O)c(/C=N/Nc2ccccn2)c1	16.6 µM
C#CCOCCOCCOCCNc1nc(N2CCN(C(=O)CCCCCCCCCCNC(=O)[C@@H](CCC(=O)O)n3cc(CCCCCN)nn3)CC2)nc(N2CCN(C(=O)CCCCCCCCCCNC(=O)[C@H](CCCCN)n3cc(C[C@@H](C)CC)nn3)CC2)n1	11 µM

Test system: not listed separately
Experiment: as above
Conditions: S. cerevisiae RPL19A-GFP strain, flow cytometry fluorescence, 3 h; at 33 µM (top of the series)

SMILES	GFP fluorescence, lower = active (kMESF (background-subtracted))
Oc1ccc(N=Nc2ccccc2)o1	42.3 (inactive)
Cc1c(C)c2ccc(Oc3ccc([N+](=O)[O-])cc3C(F)(F)F)c(C)c2oc1=O	39.5 (inactive)
C[C@@]12C(=O)OC(=O)[C@]1(C)C1CCC2O1	25.9 (inactive)
Cc1[nH]n(-c2ncc(-c3ccccc3)s2)c(=O)c1C(c1ccc(Cl)cc1)C(C#N)C#N (stereo not given)	42 (inactive)
O=C1ON=C(c2ccccc2)/C1=C/c1ccc(-c2ccccc2[N+](=O)[O-])o1	25.3 (inactive)
COc1ccccc1[C@@]1(C)ON(c2ccccc2C(F)(F)F)C1=O	22.7 (inactive)
Cc1ccc(C(=O)NNC(=S)NC(=O)c2ccco2)cc1	49.1 (inactive)
Cc1ccc(C(=O)Sc2cccccc2=O)cc1	27.8 (inactive)
CCCOc1ccc(C(=O)NNC(=S)NC(=O)c2ccccc2)cc1	45.7 (inactive)
CCC(=O)Nc1ccc(NC(=O)c2cc3ccccc3o2)cc1	39.4 (inactive)
COc1ccc(NC2=C(Cl)C(=O)N(CCc3ccccc3)C2=O)c(OC)c1	39.1 (inactive)
CCN(CC)c1ccc(/C=C2\C(=O)c3ccc(C(=O)O)cc3C2=O)cc1	51.5 (inactive)
O=c1oc2ccccc2c(O)c1[C@H]1c2ccc(O)cc2Oc2c1c(=O)oc1ccccc21	34.8 (inactive)
O=C(/C=C/c1ccccc1)NC(=S)NNC(=O)Cc1cccs1	45.5 (inactive)
CCC(=O)Oc1oc(-c2ccccc2)nc1C=Nc1ccccc1OC	41.6 (inactive)
C=CCOc1cccc(C(=O)/C=C2/C(=O)Nc3ccccc32)c1	40.7 (inactive)
Cc1ccc(NC(=O)c2ccc(Cl)c(N3C(=O)C=CC3=O)c2)cc1	22.4 (inactive)
COC(=O)CCCC1=CC2=CC(=O)C(C)(OC(=O)CCc3ccccc3)C(=O)C2=CO1 (stereo not given)	42.8 (inactive)
O=C1/C(=C\c2ccc(O)c(O)c2)SC(=S)N1Cc1ccccc1	1.52 (inactive)
COC(=O)/C(=C/c1c[nH]c2ccccc12)[N+](=O)[O-]	42.8 (inactive)
Cc1cccc(N2C(=O)C(Cl)=C(Nc3c(C)n(C)n(-c4ccccc4)c3=O)C2=O)c1C	41.7 (inactive)
CCCCC1OC23CCCCC2C(C#N)(C(=N)O3)C1(C#N)C#N (stereo not given)	43.5 (inactive)
Cc1cccc2c1NC(=O)/C2=C\C(=O)c1cccs1	34.4 (inactive)
O=C(Oc1ccnc2cc(Cl)ccc12)N1CCOCC1	37.6 (inactive)
Oc1c(CN2CCN(c3ccccc3)CC2)cc(Br)c2cccnc12	38.4 (inactive)

SMILES	GFP fluorescence, lower = active (kMESF (background-subtracted))
CCCCc1ccc(/C=C2/C(=O)ON=C2c2ccccc2)s1	44.1 (inactive)
N/C(=N\OC(=O)c1cccc(Br)c1)c1ccccc1	40.8 (inactive)
O=[N+]([O-])c1cc(CN2CCN(c3ccccc3)CC2)c(O)c2ncccc12	45.6 (inactive)
O=C(CS(=O)c1ccccc1[N+](=O)[O-])Oc1ccc(Br)cc1 (stereo not given)	39.1 (inactive)
Cc1ccc(/C=c2\sc3nc(-c4cccs4)nn3c2=O)o1	44.7 (inactive)
COc1cc(N=c2ssnc2Cl)cc(OC)c1	31.6 (inactive)
Nc1ccccc1C#CC(=O)c1ccccc1	21 (inactive)
CC(=O)CSc1ncnc2c1cnn2-c1ccccc1	37.7 (inactive)
O=C(O)C1Sc2[nH]c(=O)sc2C2c3cc(Br)ccc3OC(=O)C12 (stereo not given)	37.8 (inactive)
CCN(CC)c1ccc2cc(-c3nc(-c4ccc(OC)cc4)cs3)c(=O)oc2c1	40 (inactive)
COc1ccc(/C=C2\C(=O)ON=C2c2ccccc2)cc1	24.9 (inactive)
CC1=C/C(=N\OS(=O)(=O)c2ccccc2)C(C(C)C)=CC1=O	21.4 (inactive)
C=CCN1C(=O)/C(=C/c2cccs2)C(=O)NC1=S	15.8 (inactive)
COc1ccc(NC(=O)/C(Cl)=C(/Cl)S(=O)Cc2ccccc2)cn1 (stereo not given)	35.8 (inactive)
O=C1Nc2ccccc2/C1=C\C(=O)c1ccccc1	34.2 (inactive)
CC[C@H](C)/C=C(C)/C=C/C1=CC2=C(Cl)C(=O)[C@@](C)(OC(C)=O)C(=O)C2=CO1	4.51 (inactive)
CCc1cccc2sc(N3CCN(C(=O)c4ccc([N+](=O)[O-])o4)CC3)nc12	11.8 (inactive)
CC(C)C[C@]1(c2ccccc2)ON(c2ccccc2C(F)(F)F)C1=O	36.6 (inactive)
C#CCOCCOCCOCCNc1nc(N2CCN(C(=O)CCCCCCCCCCNC(=O)[C@H](CCCCN)n3cc(CCCC(=O)O)nn3)CC2)nc(N2CCN(C(=O)CCCCCCCCCCNC(=O)[C@H](CCCN=C(N)N)n3cc(C[C@@H](C)CC)nn3)CC2)n1	27.1 (inactive)
Nc1ccc2ccc3cccc[n+]3c2c1	45.9 (inactive)
CCn1c(/C=C/c2ccc([N+](=O)[O-])o2)nc2ccccc2c1=O	-37.1 (inactive)
O=C1C2C3C=CC(CO)(O3)C2C(=O)N1c1ccccc1-c1ccccc1 (stereo not given)	20.9 (inactive)
CCOC(=O)CCS(=O)(=O)c1nc(-c2ccccc2)cc(C(F)(F)F)n1	33.2 (inactive)
COc1ccc([C@]2(C(C)C)ON(c3ccccc3C(F)(F)F)C2=O)cc1	46 (inactive)
COc1cc(/C=C2\CC/C(=C\c3cc(OC)c(O)c(OC)c3)C2=O)cc(OC)c1O	39.6 (inactive)

SMILES	GFP fluorescence, lower = active (kMESF (background-subtracted))
CCN(CC)c1ccc(/C=C2/C(=O)c3ccc(C(=O)O)cc3C2=O)cc1	38.3 (inactive)
O=C(OCn1ncc(Br)c(Br)c1=O)c1ccccc1Cl	44.4 (inactive)
Nc1nc(N)c2nc(CNc3ccc(C(=O)NC(CCC(=O)O)C(=O)O)cc3)cnc2n1 (stereo not given)	45.5 (inactive)
O=C(/C=C/c1ccnc2ccccc12)c1cccs1	38 (inactive)
CCN(CC)C(=O)Oc1ccnc2cc(Cl)ccc12	41.8 (inactive)
O=C1C=C(Nc2ccc(Cl)cc2)C(=O)N1c1ccc(Cl)cc1	39.1 (inactive)
O=c1oc(/C=C/c2ccc([N+](=O)[O-])s2)nc2ccccc12	55 (inactive)
Cc1c(NC2=C(Cl)C(=O)N(c3ccccc3)C2=O)c(=O)n(-c2ccccc2)n1C	43.6 (inactive)
Cc1ccc(N2C(=O)CC(Sc3ncn[nH]3)C2=O)cc1C (stereo not given)	49.3 (inactive)
COc1cccc2c(=O)c(C(=O)NCc3cccs3)c[nH]c12	40.5 (inactive)
C=CCOc1ccc(C(=O)/C=C2/C(=O)Nc3ccccc32)cc1	37.9 (inactive)
CCN(CC(=O)Nc1cc(S(=O)(=O)N2CCOCC2)ccc1Cl)Cc1ccccc1	43.2 (inactive)
O=C1c2ccccc2C(=O)N1OS(=O)(=O)c1ccc(F)cc1	37.2 (inactive)
CC(=O)[C@]1(O)Cc2c(O)c3c(c(O)c2[C@@H](O[C@H]2C[C@H](N)[C@H](O)[C@H](C)O2)C1)C(=O)c1ccccc1C3=O	42 (inactive)
O=[N+]([O-])c1ccc(-c2cn3nc(-c4ccccc4)c(-c4ccccc4)nc3n2)cc1	48.8 (inactive)
Cc1[nH][nH]c(=O)c1C(c1ccc(-c2ccc(Cl)cc2)o1)c1c(C)[nH][nH]c1=O	41.2 (inactive)
Cc1nn(C)c(C)c1N1C(=O)c2cccc3c(Br)ccc(c23)C1=O	40.3 (inactive)
COc1cc(SSc2cc(OC)cc([N+](=O)[O-])c2N)c(N)c([N+](=O)[O-])c1	32.6 (inactive)
Cc1ccc(C(=O)NNC(=S)NC(=O)COc2ccccc2)cc1	41.1 (inactive)
Cc1ccc2[nH]c(C)c(/C=C/c3cc[n+](C)cc3)c2c1	37.4 (inactive)
Cc1ccc(C(=O)O/N=C(\N)Cc2cccs2)c(Cl)c1	38.5 (inactive)
COc1ccc(N=Cc2nc(-c3ccccc3)oc2OC(C)=O)cc1	40.2 (inactive)
CCc1ccc(/C=C/C(=O)c2cc(Br)ccc(=O)c2O)cc1	40.6 (inactive)
